Each block holds one compound with its values, some of them ahead of it.
Experiments:
[1] = test system: eutopic endometrium of women with endometriosis; conditions: cited from earlier work
[2] = test system: TOB1; conditions: cultured human endometrial stromal cells from women with endometriosis; cited from earlier work
[3] = test system: endometrial stromal fibroblasts (ESFs); assay: Regulation of steroidogenic enzymes in ESFs by cAMP and/or E2/P4, Q-PCR; format: cell-based, human
Experimental: ESFs were isolated from endometrial biopsies from 15 women with and 7 women without endometriosis. […] IGFBP1 and PRL protein secretion was measured by ELISA. […] Purity of ESF populations at passage 2 was evaluated by immunohistochemistry using cytokeratin, vimentin and CD45 antibodies. Endometrial tissue biopsies were obtained from mid-secretory phase endometrium from 5 women without and 5 women with severe endometriosis.

[4] = test system: ERK; assay: ERK 1/2 phosphorylation in cultured eutopic endometrial stromal cells; format: cell-based, human; conditions: eutopic endometrial stromal cells from patients with endometriosis; treatment within 60 min; level then similar to cells from patients without endometriosis
Excerpt: Growth of ectopic endometrial tissues in the pelvic cavity, which is a hallmark of endometriosis, is associated with elevated levels of inflammatory cytokines and increased number of activated macrophages in the peritoneal environment. […] In this example, the expression of inflammatory-associated genes in cultured eutopic endometrial stromal cells from women with versus without endometriosis was examined using quantitative RT-PCR. […] Interleukin-1 beta and cyclooxygenase-2 mRNA expression were similar in cultured endometrial stromal cells from women with vs. without endometriosis. Cell proliferation was similar in eutopic endometrial stromal cells from women with versus without endometriosis when cultured in 0%, 2%, or 10% charcoal stripped FBS-containing medium or in the presence of insulin. Increased IL-8 production in endometriosis is accompanied by a strong increased phosphorylation of ERK ½ (P=0.04), a signaling molecule shown to activate IL-8 expression in endometrial stromal cells. […] Since phosphorylation of ERK and IL-8 expression increases cell migration and invasion of endometrial stromal cells, dysregulation of MAPK activity and IL-8 expression in the eutopic endometrial stromal cells of women with endometriosis may be associated with the pathophysiology and spread of the disease.

[5] = test system: pro-MMP-3 or pro-MMP-7 secretion; conditions: in vitro treatment of endometrial tissues from women with endometriosis; cited from earlier work

Compound: Cn1c(C#N)ccc1-c1ccc2c(c1)C(C)(C)OC(=S)N2 [tanaproget]
- progesterone insensitivity of eutopic endometrium of women with endometriosis ([1]; endometrial cell culture and nude mouse models): could be corrected

Compound: IL-1β: a central cytokine in endometriosis
- TOB1 expression [2]: reduced TOB1 expression

- Cyp17A1 (P450c17) expression ([3]; ESFs from women with vs without endometriosis): slightly down-regulated
- Aromatase (Cyp19A1) regulation ([3]; ESFs, cAMP effect in women with endometriosis): not regulated
- 3βHSD1 expression ([3]; P4 stimulated ESFs from women with endometriosis): Down regulation
Compound: CC(=O)[C@H]1CC[C@H]2[C@@H]3CCC4=CC(=O)CC[C@]4(C)[C@H]3CC[C@]12C [P4, progesterone]
- high basal ERK phosphorylation [4]: successfully diminished
- suppression of pro-MMP-3 or pro-MMP-7 secretion [5]: fails to fully suppress
- prevention of the ability of tissues to establish experimental disease in mice ([1]; endometrial tissues from women with endometriosis treated in vitro): fails to prevent
